Data as given in US10941157B2, “Pesticidal compositions and uses thereof” (Gilead Apollo, LLC, priority 2015, dated 2021).
Converted amounts (≈) assume the structure as drawn. Read-outs that look alike come from different tables or passages of the source.

Legend:
Type in all cases: cell-based
[1] = test system: Diplodia maydis (Dm); assay: In vitro pathogen growth inhibition assay, Dm; conditions: Stenocarpella maydis, 48 h
Procedure: (§1) A growth inhibition assay was conducted to determine the ability of compounds to control the growth of fungal pathogens, such as Botrtyis cinerea (Bc), Collectotrichum graminicola (Cg), Diplodia maydis (Dm), Fusarium moniliforme (Fm), Fusarium virguliforme (Fv), Phytophthora capsici (Pc), Rhizoctonia solani (Rs), and Septoria tritici (St). The compounds listed in Table 1 were each dissolved in DMSO at 2.5 mg/ml to produce compound stock solutions (“stocks”). […] Negative controls on each plate included 2% DMSO, water, and a blank (media+2% DMSO). Fungal spores were isolated from previously sub-cultured plates of Botrtyis cinerea (Bc), Collectotrichum graminicola (Cg), Diplodia maydis (Dm), Fusarium moniliforme (Fm), Fusarium virguliforme (Fv), Phytophthora capsici (Pc), and Septoria tritici (St). The isolated spores were diluted to individual concentrations with a 17% V8 liquid media. For Rhizoctonia solani (Rs), 1.5 mm mycelial plugs were used in place of spores and ¼ Potato Dextrose Broth (PDB) was used for dilution. The spore concentrations and plug sizes were based on growth curves generated at 48 hours for each pathogen. In a second 96-well plate, the spores or mycelial plugs, media, diluted compound solutions, and controls were combined. Once the compound was added, a true final concentration of compound in each well was measured by an OD600 reading, which adjusted for any compound precipitation that might have occurred in the well. Plate readings were repeated at both 24 and 48 hours. The blank negative control was used as a background subtraction. Additional visual ratings were performed at both 24 and 48 hours for checking on precipitation and confirming efficacy. […] Both tables list the concentration of each compound that was sufficient to ≥90% inhibition of growth for each of the fungal pathogens listed above. In addition, some of compounds were tested in a yeast growth inhibition assay for Saccharomyces cerevisiae (Sc). Table 2 lists the concentration of the tested compound that was sufficient to ≥75% inhibition of Saccharomyces cerevisiae (Sc).

[2] = test system: Fusarium virguliforme (Fv); assay: In vitro pathogen growth inhibition assay, Fv
Procedure: as §1

[3] = test system: Rhizoctonia solani (Rs); assay: In vitro pathogen growth inhibition assay, Rs (mycelial plugs); conditions: Rhizoctonia solani, 48 h
Procedure: as §1

[4] = test system: Botrtyis cinerea (Bc); assay: In vitro pathogen growth inhibition assay, Bc; conditions: 48 h
Procedure: as §1

[5] = test system: Phytophthora capsici (Pc); assay: In vitro pathogen growth inhibition assay, Pc; conditions: 48 h
Procedure: as §1

[6] = test system: Septoria tritici (St); assay: In vitro pathogen growth inhibition assay, St; conditions: Zymoseptoria tritici, 48 h
Procedure: as §1

[7] = test system: Collectotrichum graminicola (Cg); assay: In vitro pathogen growth inhibition assay, Cg; conditions: 48 h
Procedure: as §1

[8] = test system: Fusarium moniliforme (Fm); assay: In vitro pathogen growth inhibition assay, Fm; conditions: Fusarium verticillioides
Procedure: as §1

[9] = ≥90% inhibition, 48 hours vs 2% DMSO control, read-out: Compound Concentration (ppm) sufficient for ≥90% inhibition of growth, Dm
[10] = ≥90% inhibition, 48 hours vs 2% DMSO control, read-out: Compound Concentration (ppm) sufficient for ≥90% inhibition of growth, Fv
[11] = ≥90% inhibition, mycelial plugs, 48 hours vs 2% DMSO control, read-out: Compound Concentration (ppm) sufficient for ≥90% inhibition of growth, Rs
[12] = ≥90% inhibition, 48 hours vs 2% DMSO control, read-out: Compound Concentration (ppm) sufficient for ≥90% inhibition of growth, Bc
[13] = ≥90% inhibition, 48 hours vs 2% DMSO control, read-out: Compound Concentration (ppm) sufficient for ≥90% inhibition of growth, Pc
[14] = ≥90% inhibition, 48 hours vs 2% DMSO control, read-out: Compound Concentration (ppm) sufficient for ≥90% inhibition of growth, St
[15] = ≥90% inhibition, 48 hours vs 2% DMSO control, read-out: Compound Concentration (ppm) sufficient for ≥90% inhibition of growth, Cg
[16] = ≥90% inhibition, 48 hours vs 2% DMSO control, read-out: Compound Concentration (ppm) sufficient for ≥90% inhibition of growth, Fm
[17] = ≥90% growth inhibition, 48 hours, vs 2% DMSO control, read-out: Compound Concentration (ppm) sufficient for ≥90% inhibition of Dm
[18] = ≥90% growth inhibition, 48 hours, vs 2% DMSO control, read-out: Compound Concentration (ppm) sufficient for ≥90% inhibition of Fv
[19] = ≥90% growth inhibition, mycelial plugs, 48 hours, vs 2% DMSO control, read-out: Compound Concentration (ppm) sufficient for ≥90% inhibition of Rs
[20] = ≥90% growth inhibition, 48 hours, vs 2% DMSO control, read-out: Compound Concentration (ppm) sufficient for ≥90% inhibition of Bc
[21] = ≥90% growth inhibition, 48 hours, vs 2% DMSO control, read-out: Compound Concentration (ppm) sufficient for ≥90% inhibition of Pc
[22] = ≥90% growth inhibition, 48 hours, vs 2% DMSO control, read-out: Compound Concentration (ppm) sufficient for ≥90% inhibition of St
[23] = ≥90% growth inhibition, 48 hours, vs 2% DMSO control, read-out: Compound Concentration (ppm) sufficient for ≥90% inhibition of Cg
[24] = ≥90% growth inhibition, 48 hours, vs 2% DMSO control, read-out: Compound Concentration (ppm) sufficient for ≥90% inhibition of Fm

Work on `COc1ccc(F)cc1[C@H](Cn1c(=O)n(C(C)(C)C(=O)NC(C)C)c(=O)c2c(C)c(-n3nccn3)sc21)OCCN(C)C` [Compound I-173] yielded an IC90 ([1]; concentration sufficient to ≥90% inhibition of growth, 48 hours vs 2% DMSO control, read-out: Compound Concentration (ppm) for ≥90% inhibition, Dm) of over 50 µg/mL, an IC90 ([2]; concentration sufficient to ≥90% inhibition of growth, 48 hours vs 2% DMSO control, read-out: Compound Concentration (ppm) for ≥90% inhibition, Fv) of over 50 µg/mL and an IC90 ([3]; concentration sufficient to ≥90% inhibition of growth, 48 hours vs 2% DMSO control, read-out: Compound Concentration (ppm) for ≥90% inhibition, Rs) of 10 µg/mL (≈ 16.2 µM). For the same molecule, the IC90 ([4]; concentration sufficient to ≥90% inhibition of growth, 48 hours vs 2% DMSO control, read-out: Compound Concentration (ppm) for ≥90% inhibition, Bc) was 50 µg/mL (≈ 81.2 µM), the IC90 ([5]; concentration sufficient to ≥90% inhibition of growth, 48 hours vs 2% DMSO control, read-out: Compound Concentration (ppm) for ≥90% inhibition, Pc) was over 50 µg/mL and the IC90 ([6]; concentration sufficient to ≥90% inhibition of growth, 48 hours vs 2% DMSO control, read-out: Compound Concentration (ppm) for ≥90% inhibition, St) was over 50 µg/mL. The IC90 ([7]; concentration sufficient to ≥90% inhibition of growth, 48 hours vs 2% DMSO control, read-out: Compound Concentration (ppm) for ≥90% inhibition, Cg) was at least 50 µg/mL and the IC90 ([8]; concentration sufficient to ≥90% inhibition of growth, 48 hours vs 2% DMSO control, read-out: Compound Concentration (ppm) for ≥90% inhibition, Fm) was 50 µg/mL (≈ 81.2 µM).
Molecule `COc1ccc(F)cc1[C@H](Cn1c(=O)n(C(C)(C)C(=O)N2CCCCC2)c(=O)c2c(C)c(-n3nccn3)sc21)OCC(C)C` [Compound I-027] has an IC90 [1, 9] of 0.4 µg/mL (≈ 0.638 µM), an IC90 [2, 10] of 2 µg/mL (≈ 3.19 µM) and an IC90 [3, 11] of 0.4 µg/mL (≈ 0.638 µM). The IC90 [4, 12] was 0.4 µg/mL (≈ 0.638 µM), the IC90 [5, 13] was over 50 µg/mL and the IC90 [6, 14] was over 10 µg/mL. It also gave an IC90 [7, 15] of 0.4 µg/mL (≈ 0.638 µM) and an IC90 [8, 16] of 0.08 µg/mL (≈ 0.128 µM).
`COc1ccc(F)cc1[C@@H](O)Cn1c(=O)n(C(C)(C)C(=O)N2CCCC2)c(=O)c2c(C)c(-n3nccn3)sc21` [Compound I-214] showed an IC90 [1, 17] of at least 10 µg/mL, an IC90 [2, 18] of 2 µg/mL (≈ 3.59 µM) and an IC90 [3, 19] of 0.08 µg/mL (≈ 0.144 µM). It also gave an IC90 [4, 20] of 2 µg/mL (≈ 3.59 µM), an IC90 [5, 21] of over 50 µg/mL and an IC90 [6, 22] of over 50 µg/mL. The IC90 [7, 23] was 2 µg/mL (≈ 3.59 µM) and the IC90 [8, 24] was 0.4 µg/mL (≈ 0.719 µM).
With `COc1ccc(F)cc1[C@H](Cn1c(=O)n([C@@H](C)C(=O)NC(C)C)c(=O)c2c(C)c(-n3nccn3)sc21)OC(C)C` [Compound I-057] the IC90 [1, 9] was 0.4 µg/mL (≈ 0.698 µM), the IC90 [2, 10] was 0.4 µg/mL (≈ 0.698 µM) and the IC90 [3, 11] was 0.4 µg/mL (≈ 0.698 µM). It also gave an IC90 [4, 12] of 0.4 µg/mL (≈ 0.698 µM), an IC90 [5, 13] of 50 µg/mL (≈ 87.3 µM) and an IC90 [6, 14] of 50 µg/mL (≈ 87.3 µM). The IC90 [7, 15] was 0.08 µg/mL (≈ 0.14 µM) and the IC90 [8, 16] was 0.08 µg/mL (≈ 0.14 µM).
Work on `COc1ccc(F)cc1[C@H](Cn1c(=O)n(C(C)(C)C(=O)NC(C)C)c(=O)c2c(C)c(-n3nccn3)sc21)O[C@H]1CC[C@@H](O)CC1` [Compound I-264] yielded an IC90 [1, 17] of 2 µg/mL (≈ 3.11 µM), an IC90 [2, 18] of 0.4 µg/mL (≈ 0.622 µM) and an IC90 [3, 19] of 0.08 µg/mL (≈ 0.124 µM). It also gave an IC90 [4, 20] of 0.4 µg/mL (≈ 0.622 µM), an IC90 [5, 21] of 50 µg/mL (≈ 77.8 µM) and an IC90 [6, 22] of over 50 µg/mL. For the same molecule, the IC90 [7, 23] was 2 µg/mL (≈ 3.11 µM) and the IC90 [8, 24] was 0.08 µg/mL (≈ 0.124 µM).
Molecule `COc1ccc(F)cc1[C@H](Cn1c(=O)n(C(C)(C)C(=O)NC(C)C)c(=O)c2c(C)c(-n3nccn3)sc21)OCC(C)C` [Compound I-026] has an IC90 [1, 9] of 0.08 µg/mL (≈ 0.133 µM), an IC90 [2, 10] of 0.4 µg/mL (≈ 0.666 µM) and an IC90 [3, 11] of 0.4 µg/mL (≈ 0.666 µM). For the same molecule, the IC90 [4, 12] was 0.4 µg/mL (≈ 0.666 µM), the IC90 [5, 13] was over 50 µg/mL and the IC90 [6, 14] was at least 2 µg/mL. For the same molecule, the IC90 [7, 15] was 0.08 µg/mL (≈ 0.133 µM) and the IC90 [8, 16] was 0.08 µg/mL (≈ 0.133 µM).
In the case of `COCCOc1ccc(F)cc1[C@H](Cn1c(=O)n(C(C)(C)C(=O)NC(C)C)c(=O)c2c(C)c(-n3nccn3)sc21)OC(C)C` [Compound I-068], the IC90 [1, 9] is reported as at least 0.08 µg/mL, the IC90 [2, 10] is reported as 0.4 µg/mL (≈ 0.634 µM) and the IC90 [3, 11] is reported as 0.4 µg/mL (≈ 0.634 µM). The IC90 [4, 12] was 0.4 µg/mL (≈ 0.634 µM), the IC90 [5, 13] was over 50 µg/mL and the IC90 [6, 14] was at least 50 µg/mL. The IC90 [7, 15] was 0.4 µg/mL (≈ 0.634 µM) and the IC90 [8, 16] was 0.08 µg/mL (≈ 0.127 µM).
For `COCCO[C@@H](Cn1c(=O)n(C(C)(C)C(=O)N2CCCC2)c(=O)c2c(C)c(-n3nccn3)sc21)c1cc(F)ccc1OC` [Compound I-164], the IC90 [1, 17] was 10 µg/mL (≈ 16.3 µM), the IC90 [2, 18] was 2 µg/mL (≈ 3.25 µM) and the IC90 [3, 19] was 50 µg/mL (≈ 81.3 µM). It also gave an IC90 [4, 20] of 50 µg/mL (≈ 81.3 µM), an IC90 [5, 21] of over 50 µg/mL and an IC90 [6, 22] of over 50 µg/mL. It also gave an IC90 [7, 23] of 10 µg/mL (≈ 16.3 µM) and an IC90 [8, 24] of 2 µg/mL (≈ 3.25 µM).
